Experiment [1] addresses T1, V1 (pressor) vasopressin receptor, rat liver crude membrane preparation (Rattus norvegicus, UniProt P30560).
T1 construct: crude membrane preparation of rat liver (V1 receptor); from tissue; host or cells: rat liver, crude membrane preparation
Description: [3H]Arginine Vasopressin Binding Assay, liver (V1). To be noted: rat liver membranes; mean, n = 3; read-out: IC50 Values, 3H-Arg8-Vasopressin Binding, Liver (V1). The source says:
(§1) The table summarizes the in vitro potency of the compound to compete for ^3 H-vasopressin binding at two proposed vasopressin receptor subtypes (V1, V2), as well as to inhibit vasopressin-stimulated adenylate cyclase-activity, a further measure of vasopressin antagonism.
(§2) The [^3 H]Arginine Vasopressin Binding Assay is an in vitro procedure which was adapted from the method of Guillon et al., Eur. J. Pharmacol. 85: 219-304 (1982). It measures the relative affinity of the compound for vasopressin receptor(s) labelled by [^3 H]vasopressin. Vasopressin receptors have been divided into two subtypes pharmacollogically: the V1 (pressor)-receptor found in liver and vascular smooth muscle and the V2 (antidiuretic) receptor found in kidney medulla. The binding assay uses a crude membrane preparation of rat liver (V1 receptor) or kidney medulla (V2 receptor) which is incubated with [^3 H]vaspopressin in the presence or absence of the test compound. The IC50 values (concentrations to inhibit [^3 H]vasopressin binding by 50%) for the compound (see Table VI) are measures of their potencies and are inversely related to their affinities.

Experiment [2] has as its target T2, V2 (antidiuretic) vasopressin receptor, kidney medulla crude membrane preparation (Rattus norvegicus, UniProt Q00788).
T2 construct: crude membrane preparation of rat liver (V1 receptor) or kidney medulla (V2 receptor); from tissue; host or cells: kidney medulla, crude membrane preparation
The experiment in a line: [3H]Arginine Vasopressin Binding Assay, kidney medulla (V2). To be noted: kidney medulla membranes; mean with standard error, n = 3; read-out: IC50 Values, 3H-Arg8-Vasopressin Binding, Kidney (V2).
Description: as §1, §2

In experiment [3] the target is vasopressin-stimulated adenylate cyclase, Kidney (V2). The experiment in a line: Inhibition of vasopressin-stimulated adenylate cyclase in kidney medulla (V2 antagonism). It counts as biochemical. To be noted: conversion of ATP to cAMP, mean, n = 2, read-out: IC50 Values, AVP-stimulated Ad. Cyclase, Kidney (V2).
Description: as §1
Vasopressin exerts its antidiuretic effects on the kidney through the stimulation of adenylate cyclase activity. Vasopressin-stimulated adenylate cyclase in kidney medulla, therefore, is used as a functional assay to determine the potencies of the test compound as V2 -vasopressin antagonists. In this assay, the IC50 value obtained for the compound IA (see Table IV) is a measure of its potency to inhibit the vasopressin-stimulated conversion of ATP to CAMP by adenylate cyclase. This method was adapted from Seamon et al., PNAS 78: 3363-3367 (1981).

T2 sequence (Q00788 whole entry): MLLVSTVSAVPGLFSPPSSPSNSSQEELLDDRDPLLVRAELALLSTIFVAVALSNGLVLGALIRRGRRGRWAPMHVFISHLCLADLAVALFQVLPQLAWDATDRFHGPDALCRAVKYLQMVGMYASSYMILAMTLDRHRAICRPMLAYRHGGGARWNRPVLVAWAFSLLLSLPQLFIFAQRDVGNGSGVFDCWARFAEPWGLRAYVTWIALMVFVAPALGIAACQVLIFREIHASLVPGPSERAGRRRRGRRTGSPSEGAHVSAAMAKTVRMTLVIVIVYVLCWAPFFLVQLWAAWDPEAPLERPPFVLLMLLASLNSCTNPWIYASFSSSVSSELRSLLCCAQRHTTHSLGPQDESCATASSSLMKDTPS
T1 sequence (P30560 whole entry): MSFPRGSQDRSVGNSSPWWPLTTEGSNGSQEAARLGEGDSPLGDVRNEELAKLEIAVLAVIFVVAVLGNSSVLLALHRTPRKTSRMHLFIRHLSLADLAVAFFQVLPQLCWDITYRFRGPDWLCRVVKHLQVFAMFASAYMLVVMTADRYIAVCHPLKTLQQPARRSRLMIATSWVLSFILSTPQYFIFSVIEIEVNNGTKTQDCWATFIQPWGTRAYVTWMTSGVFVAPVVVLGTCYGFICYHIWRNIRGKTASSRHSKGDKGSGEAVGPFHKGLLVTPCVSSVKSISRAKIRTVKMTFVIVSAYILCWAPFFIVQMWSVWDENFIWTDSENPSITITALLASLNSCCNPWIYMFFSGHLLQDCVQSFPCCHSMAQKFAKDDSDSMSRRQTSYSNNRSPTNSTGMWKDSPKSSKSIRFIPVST

Consider `[C-]#[N+]C12C(C(C(=C)C)CC(Cl)C1(C)C=C)C21C(=O)Nc2ccccc21` (stereo not drawn) [Formula IA, Hapalindolinone A], for which the figures for the IC50 in experiment [1], in experiment [2] and in experiment [3] were greater than 100 µM, 37.5 ± 7.6 µM and 44.6 µM, respectively.

As usually defined, the IC50 is the midpoint of a concentration-inhibition curve.

Source of the values: patent US4803217A, “Hapalindolinone compounds as vassopressin antagonists” (Merck & Co., Inc., priority 1986, dated 1989).
